Results from paper PMC10645073, “Interaction of gallium, indium and vanadyl diacetylcurcumin complexes with lysozyme: mechanistic aspects and evaluation of antiamyloidogenic activity” (Royal Society Open Science, 2023).

Key:
[1] = molecular target: T1, hen egg white lysozyme (HEWL) (Gallus gallus, UniProt P00698); assay: Förster resonance energy transfer (FRET) binding distance, HEWL donor / metal complex acceptor
T1 construct: whose 129 amino acid residues are linked together by four disulfide bridges to form a single polypeptide chain; purchased Sigma-Aldrich L6876; host or cells: hen egg white (natural source, per the protein's name)
From the text: Förster resonance energy transfer (FRET) is a sensitive fluorescence-based approach that acts as a spectroscopic ruler to determine the binding distances within 1–10 nm between interacting molecules. Owing to the good overlap between the emission fluorescence spectrum of HEWL, as donor molecule, and the absorption spectra of three metal complexes of diacetylcurcumin, as acceptor molecules (electronic supplementary material, figure S4), the FRET method was used to obtain distance-dependent information of the donor-acceptor pairs. According to Förster's non-radiative energy transfer theory, the value of energy transfer efficiency, E, can be measured using the following equation:3.5 E=1−F/F0=R06/R06+r^6, where R0 and r represent the critical energy transfer distance and distance between donor and acceptor, respectively. The R0 parameter, the distance for 50% energy transfer, can be also calculated by the following equation:3.6 R06=8.79 × 10^−25[K^2n^−4ϕJ(λ)],
where K^2 is the relative orientation of the donor and acceptor (equal to 2/3 for a random orientation), n denotes the average refractive index of the medium (equal to 1.33), and φ represents the fluorescence quantum yield of the donor (equal to 0.15). […] Therefore, it can be concluded that a non-radiative energy transfer process contributes to the fluorescence quenching of HEWL by the metal complexes of diacetylcurcumin. […]

[2] = molecular target: T1, hen egg white lysozyme (HEWL); assay: Synchronous fluorescence spectroscopy of HEWL; type: binding; details: Δλ = 60 nm
Procedure: To obtain synchronous fluorescence spectra, simultaneous scanning of excitation and emission monochromators was performed in such a way as to maintain a constant wavelength interval between them. The changes in the molecular microenvironment of tyrosine and tryptophan residues of HEWL were monitored by fixing the wavelength interval (Δλ = λem − λex) individually at 15 and 60 nm, respectively. The concentrations of HEWL and three metal complexes of diacetylcurcumin were the same as those mentioned for the intrinsic fluorescence spectroscopy.
To investigate the effect of the metal complexes of diacetylcurcumin on the conformation of tyrosine and tryptophan residues of HEWL, synchronous fluorescence spectra of HEWL were recorded alone and in the presence of the metal complexes (electronic supplementary material, figure S5). By fixing the Δλ value, i.e. the difference between excitation and emission wavelengths, at 15 and 60 nm, synchronous fluorescence spectroscopy provides useful information on the microenvironmental changes of tyrosine and tryptophan residues of proteins, respectively. As shown in the electronic supplementary material, figure S5, all three metal complexes of diacetylcurcumin strongly quench the emission fluorescence of HEWL at both 15 and 60 nm. […] At Δλ = 15 nm, no shift in the emission maximum of HEWL is observed, whereas at Δλ = 60 nm, a 2 nm blue shift is observed in the emission spectrum of tryptophan residues of the protein after the interaction with the metal complexes of diacetylcurcumin except for the VO(DAC)2 complex. […] Overall, it can be concluded that the formation of HEWL/metal complex bioconjugates is associated with the binding of three metal complexes of diacetylcurcumin to both tyrosine and tryptophan residues in which the conformational changes can occur only around the tryptophan residues of the protein. It should be noted that the reduction in the polarity of the microregions surrounding tryptophan residues of the protein has already been observed by the intrinsic emission fluorescence titrations (see §3.1.1.).

Row | Structure (SMILES) | binding distance r between donor and acceptor [1] | energy transfer value (E) [1] [%] | microenvironment of tryptophan residues of HEWL [2]
1 | COc1cc(C=CC(=O)C=C([O-])C=Cc2ccc(OC(C)=O)c(OC)c2)ccc1OC(C)=O.COc1cc(C=CC(=O)C=C([O-])C=Cc2ccc(OC(C)=O)c(OC)c2)ccc1OC(C)=O.COc1cc(C=CC(=O)C=C([O-])C=Cc2ccc(OC(C)=O)c(OC)c2)ccc1OC(C)=O.[In+3] [In(DAC)3, indium diacetylcurcumin] | least value of the binding distance | 18 | more hydrophobic
2 | COc1cc(/C=C/C(=O)C=C([O-])/C=C/c2ccc(OC(C)=O)c(OC)c2)ccc1OC(C)=O.COc1cc(/C=C/C(=O)C=C([O-])/C=C/c2ccc(OC(C)=O)c(OC)c2)ccc1OC(C)=O.[O]=[V+2] [VO(DAC)2, vanadyl diacetylcurcumin] |  |  | remains unaffected
